These results are taken from patent US11578055B2, “Triazacyclododecansulfonamide (“TCD”)-based protein secretion inhibitors” (KEZAR LIFE SCIENCES, priority 2018, dated 2023).

Some results are limits rather than exact numbers.

A short description of series [1]: In Vitro Microsome Stability Assay (human). Format: in vitro ADME. Particulars: human liver microsomes, 30 min w/ NADPH. An outline of the steps: (§1)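 Species liver microsomes in potassium phosphate buffer were preincubated at 37 °C for 3–5 min with test compound (added from 0.25 mM DMSO stock), then started with NADPH. Samples at 0 and 30 min were quenched with acetonitrile containing internal standard and analysed by LC-MS/MS; % remaining at 30 min used analyte/IS AUC ratios relative to t=0.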
Background: Liver microsomes are vesicles of endoplasmic reticulum, rich in cytochrome P450 enzymes.

For series [2], the system named is full length TNFα (amino acids 1-233) fused to Gaussia Luciferase. Description: Dox Induced TNFα-FL-Gluc Assay. Particulars: 24 hr, Dox inducible, 293FRT/TO cells; read-out: 24 hr Dox Inducible TNFaFLGluc 293FRT/TO: Mean IC50. The format is cell-based. An outline of the steps:
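Compounds diluted in DMSO/medium with doxycycline were incubated at 37° C, 5% CO2 with 293 T-REx cells stably carrying a Tet-regulated TNFα(1-233)-Gaussia luciferase construct. Data for structures drawn without stereochemistry refer to stereoisomer mixtures.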

Series [3] is described as follows: In Vitro Microsome Stability Assay (monkey). Particulars: monkey liver microsomes, 30 min w/ NADPH. Format: in vitro ADME. An outline of the steps: as §1
Series [4] relates to multiple myeloma cell line NCl-H929. Description: H929 Cell Viability Assay. The format is cell-based, human. Particulars: Homo sapiens, NCI-H929, 48 h, H929, Celltiter-Glo. An outline of the steps: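 Viability was determined by CellTiter-Glo luminescence after a 48 h, 37 °C exposure of NCI-H929 cells to serial compound dilutions in medium containing 10% FBS. Where stereochemistry is not shown, values refer to a mix of stereoisomers.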
On the technique in general: ATP-based viability assays read luminescence as a measure of living cells.

The next series has as its system IL-1β. The series is described as follows: Human PBMC Cytokine Assay: IL-1β. Format: cell-based. Particulars: LPS stimulation, 24 hours. Here is the method: (§2) Human PBMC were freshly isolated from whole blood collections of 3 normal donors utilizing density gradient centrifugation followed by red blood cell lysis. PBMC from each donor were assayed separately. Cells were suspended in RPMI 1640 media supplemented with 5% fetal bovine serum, 2 mM L-glutamine, 10 mM HEPES, and 1× penicillin/streptomycin. PBMC were seeded at 200,000 cells/well in 96-well round-bottom plates either without stimulation or with stimulation by lipopolysaccharide (LPS, 1 μg/mL) or antibodies against human CD3 (plate-bound, 2 μg/mL) and human CD28 (soluble, 2 μg/mL). Serial dilutions of compound in DMSO/media were simultaneously added and PBMC were incubated at 37° C., 5% CO2 for 24 hours. After 24 hours, plates were centrifuged and half of the supernatant volume removed for cytokine analysis by electrochemiluminescent immunoassay (U-PLEX® Biomarker Multiplex, Meso Scale Discovery). For viability analysis, CellTiter-Glo® (Promega) was added to the remaining material in each well and quantified via luminescent plate reader.

The test system of another series is GM-CSF. The series is described as follows: Human PBMC Cytokine Assay: GM-CSF. Format: cell-based. Particulars: anti-CD3/CD28 stimulation, 24 hours. The method, then: as §2
For a further series, the system named is Human PBMC. The series is described as follows: Human PBMC CellTiter-Glo viability. Format: cell-based. Particulars: no stimulation, 24 hours. Here is the method:
as §2

The nature of series [5]: In Vitro Microsome Stability Assay (rat). The format is in vitro ADME. Particulars: rat liver microsomes, 30 min w/ NADPH. Summed up:
as §1

The next series has as its system IL-2. Description: Human PBMC Cytokine Assay: IL-2. Format: cell-based. Particulars: anti-CD3/CD28 stimulation, 24 hours. The method, then:
as §2

For a further series, the system named is TNFα. The series is described as follows: Human PBMC Cytokine Assay: TNFα. The format is cell-based. Particulars: anti-CD3/CD28 stimulation, 24 hours. The method, then:
as §2

The subject of series [6] is PD1 signal sequence plus 10 amino acids fused to Gaussia Luciferase (PD1-ss+10aa/Gaussia Luciferase). Description: Dox Induced PD1-ss-Gluc Assay. The format is cell-based. Particulars: 24 hr, Dox inducible, 293FRT/TO cells; read-out: 24 hr Dox Inducible PD1ssGluc 293FRT/TO: Mean IC50. An outline of the steps:
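Compound dilutions in DMSO/media containing doxycycline were applied to a stable, inducible 293 T-REx line carrying the luciferase fusion, then incubated at 37 °C, 5% CO2. Where stereochemistry is not drawn, values relate to isomer mixtures.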

The next series deals with IFNγ. The series is described as follows: Human PBMC Cytokine Assay: IFNγ. Format: cell-based. Particulars: anti-CD3/CD28 stimulation, 24 hours. Here is the method: as §2
Another series concerns IL-23. Description: Human PBMC Cytokine Assay: IL-23. The format is cell-based. Particulars: LPS stimulation, 24 hours. The method, then: as §2
The subject of series [7] is full length IL-2 (amino acids 1-153) fused to Gaussia Luciferase. The series is described as follows: Dox Induced IL2-FL-Gluc Assay. Format: cell-based. Particulars: 24 hr, Dox inducible, 293FRT/TO cells; read-out: 24 hr Dox Inducible IL2FLGluc 293FRT/TO: Mean IC50. Summed up:
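Compounds in DMSO/media with doxycycline were added to cells plated the previous day and incubated at 37° C, 5% CO2. Cells: stable Flp-In 293 T-REx line, Dox-regulated expression of IL-2 (aa 1-153) fused at its C-terminus to Gaussia luciferase.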

A short description of series [8]: In Vitro Microsome Stability Assay (mouse). Format: in vitro ADME. Particulars: mouse liver microsomes, 30 min w/ NADPH. An outline of the steps: as §1
Series [9] relates to multiple myeloma cell line U266B1. Description: U266 Cell Viability Assay. Format: cell-based, human. Particulars: Homo sapiens, U-266; 48 hr, U266, Celltiter-Glo. An outline of the steps: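 Viability was measured by CellTiter-Glo luminescence after 48 h compound exposure at 37° C, 5% CO2. The cells were U266B1 multiple myeloma cells grown in RPMI 1640 plus 10% FBS. Where stereochemistry is not shown, values apply to the stereoisomer mixture.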

In the next series the test system is IL-6. The series is described as follows: Human PBMC Cytokine Assay: IL-6. The format is cell-based. Particulars: LPS stimulation, 24 hours. Here is the method: as §2

As for `Cc1ccccc1CN1CCCN(S(=O)(=O)c2ccc(N(C)C)cc2)C[C@H](C)CN(S(=O)(=O)N2CCc3cc(Cl)ccc3C2)CCC1` [A133, 4-{[(3S)-5-[(6-chloro-1,2,3,4-tetrahydroisoquinolin-2-yl)sulfonyl]-3-methyl-9-[(2-methylphenyl)methyl]-1,5,9-triazacyclododecan-1-yl]sulfonyl}-N,N-dimethylaniline], in series [1], the “Liver Microsome Stability-% Left after 30 min w/ NADPH (%) Human” value was 71.3%. Further, the IC50 in series [2] is 749 nM; with IL-1β, above 25000 nM; in the series on GM-CSF, 404 nM; in the series with Human PBMC, above 25000 nM; in the series with IL-2 it was 197 nM; in the series with TNFα, 216 nM. Further, the IC50 in [6] amounted to 36.8 nM; in the series with IFNγ, 234 nM; in the series with IL-23, 1050 nM; in series [7], 135 nM; in the series on IL-6, 193 nM. In series [3], the “Liver Microsome Stability-% Left after 30 min w/ NADPH (%) Monkey” value is 67.3%. Besides, the values for the EC50 in series [4] and in [9] were 5120 nM and above 25000 nM, respectively. Besides, in series [5], the “Liver Microsome Stability-% Left after 30 min w/ NADPH (%) Rat” value stood at 87.3%. Also, the “Liver Microsome Stability-% Left after 30 min w/ NADPH (%) Mouse” value in [8] turned out to be 82.2%.
